Assay [1] relates to Chick embryo DRG neurons. As to the kind of experiment: automated MTT neurotrophic assay. It is filed as cell-based. The settings on record: HPLC fractions of ten cyclized/oxidized NGF 29-36 region peptides. The procedure:
(§1) Bioassays were performed as previously described (Manthorpe et al, "An automated colorimetric microassay for neuronotrophic factors", Dev. Brain Res. 25:191-198 (1986)). Dorsal root ganglia were dissected from embryonic day 8 chick embryos and placed in calcium and magnesium-free Dulbecco's balanced salt solution on ice. […] During this incubation non-neuronal cells (Schwann cells, fibroblasts) more readily attached to the substratum leaving a supernatant containing an enriched neuronal population (80-85% neurons). […]
(§2) The bioassays used for measuring the NGF agonist activity of the compounds of this invention were initially characterized using NGF as a control. […] The neurotrophic activity of NGF is most easily assessed by measuring the number of cells surviving and bearing neurites; however, the lack of neurites in peptide-supported cultures required the use of additional criteria to assess peptide effect. In order to more accurately determine neuronal survival, MTT was added to cultures at 16 hours and cultures assessed under phase contrast microscopy at 24 hours. Intact cells characteristic of surviving neurons which also contained blue MTT product were counted. […] In subsequent studies, activity of both peptides and NGF was assessed by counting the number of intact cells with blue MTT product (morphological/MTT assay) and by the automated MTT assay. […]

In assay [2] the test system is Chick embryo DRG neurons. As to the kind of experiment: morphological/MTT assay of neuronal survival. The class given is cell-based. The note with it: HPLC fractions of cyclized/oxidized, scrambled and linear P7. The procedure: as §1, §2
In assay [3] the test system is Chick embryo DRG neurons. As to the kind of experiment: neurite outgrowth of cultured neurons. It is filed as cell-based. As for the experimental part:
as §1
Neuronal survival and neurite outgrowth were assessed by a combination of morphological criteria described previously (Longo et al, "The in vitro biological effect of nerve growth factor is inhibited by synthetic peptides" Cell Regulation 1:189-195 (1990)) and an MTT calorimetric assay (Manthorpe et al., "An automated colorimetric microassay for neuronotrophic factors", Dev. Brain Res. 25:191-198 (1986)). […] The blue product can be quantitated by lysing cells with acid alcohol to solubilize the blue product and measuring overall optical density or by counting the number per area of intact surviving neurons with blue dye. […] For each peptide or NGF concentration, duplicate wells were counted in each bioassay and four values (two strips counted/well) averaged. In other assays, cells were lysed at 24 hours in acid alcohol and the MTT product was dissolved and quantified. […]

In another assay the target is T1, NGF p75 receptor (Gallus gallus, UniProt P18519).
T1 construct: Dorsal root ganglia were dissected from embryonic day 8 chick embryos; endogenous in cells; host or cells: primary neurons dissociated from embryonic day 8 chick dorsal root ganglia
T1 sequence (P18519 20-416): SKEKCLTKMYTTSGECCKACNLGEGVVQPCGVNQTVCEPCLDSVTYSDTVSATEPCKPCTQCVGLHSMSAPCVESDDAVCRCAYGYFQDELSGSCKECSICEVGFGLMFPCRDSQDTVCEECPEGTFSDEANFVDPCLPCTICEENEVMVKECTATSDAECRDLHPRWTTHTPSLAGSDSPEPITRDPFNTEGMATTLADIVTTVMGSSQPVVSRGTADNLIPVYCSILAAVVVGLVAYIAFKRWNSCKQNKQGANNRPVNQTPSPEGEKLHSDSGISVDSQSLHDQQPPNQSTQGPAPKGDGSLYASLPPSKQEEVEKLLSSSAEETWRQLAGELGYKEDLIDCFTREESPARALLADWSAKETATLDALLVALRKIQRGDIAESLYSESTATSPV
As to the kind of experiment: survival-promoting activity in the presence of p75 antiserum (antibody 9651). It is filed as cell-based, chick. The note with it: p75 antiserum 1:100 final dilution; morphological/MTT assay. The procedure:
Antiserum (antibody 9651) directed against the third and fourth cysteine rich repeats of the extracellular domain of mouse p75 was obtained as described in Huber (infra). […] Antiserum and control non-immune serum were tested at final dilutions of 1:100 in the presence of NGF or peptide.
To determine if activity of P7 and P7-scrambled peptides was dependent on p75 , their activity in the presence of p75 antiserum (1:100 final dilution) which inhibits NGF neurotrophic activity was measured. […] In 15 bioassays, control background survival was 14±2% (S.E.) of the NGF maximum compared to a background in the presence of p75 antiserum of 13±2% in 5 of the same 15 assays.

“Also recorded” adds a separate entry of the source.

For IPenKGKEVCT [Peptide P7], the “survival-promoting activity (in words)” value in the assay with Chick embryo DRG neurons [1] is “highest activity at the lowest concentrations; also recorded: greatest survival-promoting activity at the lowest concentration”. The “survival-promoting activity of P7 forms (in words)” value in the assay with Chick embryo DRG neurons [2] is “showed activity; also recorded: significantly greater activity than P7-scrambled peptides”. Besides, the “neurite outgrowth (in words)” value in the assay with Chick embryo DRG neurons [3] is listed as “continued to lack neurites”.

B1: NGF: Mouse submaxillary β-NGF purified via 7S NGF (protein, UniProt P01139 122-241, looked up)
Beta-nerve growth factor: SSTHPVFHMGEFSVCDSVSVWVGDKTTATDIKGKEVTVLAEVNINNSVFRQYFFETKCRASNPVESGCRGIDSKHWNSYCTTTHTFVKALTTDEKQAAWRFIRIDTACVCVLSRKATRRG
modifications: Beta-nerve growth factor
notes: Mouse submaxillary β-NGF purified via 7S NGF
Consider B1, for which the “inhibition of survival-promoting activity by p75 antiserum, average over the three concentrations tested” value in the assay with NGF p75 receptor worked out at 40%.
